Experimental data published in US10758517B2, “mPGES-1 inhibitor for the treatment of osteoarthritis pain” (Glenmark Pharmaceuticals S.A., priority 2017, dated 2020).
Marks after values point to notes of the source that are not given here.

System: LPS-induced PGE2 release
Experiment: Ex vivo LPS-induced PGE2 release in whole blood, single dose crossover versus celecoxib (Example 1, Part 3)
Parameters: species or system human
Settings: single oral dose 400 mg, fasted healthy subjects
Protocol: Part 2 was a single-dose, double-blind study in a single cohort of elderly subjects. Part 3 was an open-label, randomized, 2-period, single-dose, crossover study to compare effects of the highest tolerated Compound I dose and celecoxib on prostanoid metabolism in healthy adult subjects.
In Part 3, Compound I was administered at a dose of 1000 mg after fasting. All subjects received Compound I and all subjects received 400 mg celecoxib in a cross-over study design.
In Parts 1a and 3, whole blood samples were incubated and analyzed for lipopolysaccharide (LPS)-induced prostaglandin PGE2 release. In Part 3, urine samples were collected for analysis of prostanoid metabolites.
Summary statistics were presented for the PK, pharmacodynamic (PD) and safety data, as appropriate. PK parameters following single oral doses of Compound I were determined from the plasma concentrations of Compound I using non-compartmental procedures in WinNonlin Dose proportionality was assessed using a power model, with tmax analyzed using the Kruskal-Wallis test. The effect of food on PK was assessed at the 100 and 250 mg doses using a mixed effects model. The effect of age on PK was assessed for elderly (>65 years) versus non-elderly (<65 years) at the 250 mg dose level in Parts 1a and 2, using an analysis of variance (ANOVA) with age as a fixed effect. For PD analyses, percent decrease of ex vivo LPS-induced PGE2 release was calculated. For Part 3, urinary excretion of prostanoid metabolites was also evaluated. The data are presented as absolute, as well as creatinine normalized urinary biomarker amounts, along percent change from baseline over a definite time interval. The percent change from baseline in urinary biomarkers was assessed using an analysis of covariance (ANCOVA) model
Percent change in ex vivo LPS-induced PGE2 release in whole blood is the pharmacodynamic (PD) biomarker. The PGE2 levels in whole blood were estimated using the homogeneous time-resolved fluorescence method.
Concentrations below the limit of quantification were treated as ½ the lower limit of quantification for calculation.
Time points where unstimulated prostaglandin E2 (PGE2) concentration was more than 3 times greater than the mean unstimulated PGE2 and equal to or greater than ½ baseline value for an individual subject were not included in the calculation of % inhibition.

Cc1ccc(-c2cc(C(F)(F)F)nn2-c2ccc(S(N)(=O)=O)cc2)cc1 [Celecoxib, celecoxib, reference compound]
EAUC0-24 h, LS mean: 1421 % · h | ETmax (time to reach maximum effect), Median: 6.00 h | Epeak (maximum % inhibition), LS mean: 89.1% | EAUC0-336 h, LS mean (N = 18): −10159^a % · h
